# Data taken from patent publication US20120040977A1, “INHIBITORS OF HCV NS5A” (PRESIDIO PHARMACEUTICALS, INC., priority 2009, published 2012).
# Test system: HCV genotype 1b replicon
# Assay: HCV replicon assay (HCV 1b_Huh-Luc/Neo-ET cell line, luciferase readout)
# Type: cell-based
# Conditions: Hepatitis C virus; bicistronic genotype 1b replicon in Huh 7 cells, 72 h incubation, luciferase enzyme activity; read-out: Inhibition of HCV genotype 1b
# Description: Biological activity of the compounds of the invention was determined using an HCV replicon assay. The HCV 1b_Huh-Luc/Neo-ET cell line persistently expressing a bicistronic genotype 1b replicon in Huh 7 cells was obtained from ReBLikon GMBH. This cell line was used to test compound inhibition using luciferase enzyme activity readout as a measurement of compound inhibition of replicon levels.
# On Day 1 (the day after plating cells), each compound is added in triplicate to the cells. Plates are incubated for 72 h prior to determining luciferase levels. Enzyme activity was measured using a Bright-Glo Kit (cat. number E2620) manufactured by Promega Corporation. The following equation was used to generate a percent control value for each compound.
# % Control=(Average Compound Value/Average Control)*100
# The EC50 value was determined using GraphPad Prism and the following equation:
# Y=Bottom+(Top−Bottom)/(1+10̂((LogIC50−X)*HillSlope))
# EC50 values of compounds are determined several times in the replicon assay. […]
row,Compound,EC50 [nM]
1,COC(=O)N[C@H](C(=O)N1CCC[C@H]1C(=O)N[C@@H](C)c1ccc(-c2ccc(-c3cnc([C@@H]4CCCN4C(=O)[C@@H](NC(=O)OC)C4CCOCC4)[nH]3)cc2)cc1)C1CCOCC1 [Compound 101],1 to 9.9
2,COC(=O)N[C@H](C(=O)N1CCC[C@H]1CNC(=O)c1ccc(-c2ccc(-c3cnc([C@@H]4CCCN4C(=O)[C@@H](NC(=O)OC)C(C)C)[nH]3)nc2)cc1)C(C)C [Compound 90],1 to 9.9
3,COC(=O)N[C@@H](C(=O)N1CCC[C@H]1C(=O)Nc1ccc(-c2ccc3nc([C@@H]4CCCN4C(=O)[C@H](NC(=O)OC)c4ccccc4)[nH]c3c2)cc1)c1ccccc1 [Compound 74],< 1
4,COC(=O)N[C@H](C(=O)N1CCC[C@H]1C(=O)Nc1ccc(-c2ccc3c(c2)CCc2nc([C@@H]4CCCN4C(=O)[C@@H](NC(=O)OC)C(C)C)[nH]c2-3)cc1)C(C)C [Compound 112],1 to 9.9
5,C=CC[C@H](NC(=O)OC)C(=O)N1CCC[C@H]1C(=O)Nc1ccc(-c2ccc(-c3cnc([C@@H]4CCCN4C(=O)[C@H](CC=C)NC(=O)OC)[nH]3)cc2)cc1 [Compound 75],1 to 9.9
6,C[C@@H](NC(=O)C1CC1)C(=O)N1CCC[C@H]1c1ncc(-c2ccc(Oc3ccc(-c4cnc([C@@H]5CCCN5C(=O)[C@@H](C)NC(=O)C5CC5)[nH]4)cc3)cc2)[nH]1 [Compound 58],10 to 999
7,CC(C)(C)OC(=O)N[C@@H](C(=O)N1CCC[C@H]1C(=O)NCc1ccc(-c2ccc(-c3cnc([C@@H]4CCCN4C(=O)[C@H](NC(=O)OC(C)(C)C)c4ccccc4)[nH]3)cc2)cc1)c1ccccc1 [Compound 33],< 1
8,COC(=O)N[C@H](C(=O)N1CCC[C@H]1C(=O)Nc1ccc(-c2ccc(-c3cnc([C@@H]4CCCN4C(=O)[C@@H](NC(=O)OC)C4CCOCC4)[nH]3)cc2)cc1)C1CCOCC1 [Compound 110],1 to 9.9
9,C[C@H](NC(=O)[C@@H]1CCCN1C(=O)[C@H](NC(=O)OC(C)(C)C)c1ccccc1)c1ccc(-c2ccc(-c3cnc([C@@H]4CCCN4C(=O)[C@H](NC(=O)OC(C)(C)C)c4ccccc4)[nH]3)cc2)cc1 [Compound 34],< 1
10,CN1CCN(C(=O)N[C@@H](C(=O)N2CCC[C@H]2CNC(=O)c2ccc(-c3ccc(-c4cnc([C@@H]5CCCN5C(=O)[C@H](NC(=O)N5CCN(C)CC5)c5ccccc5)[nH]4)cc3)cc2)c2ccccc2)CC1 [Compound 57],1 to 9.9
11,COC(=O)N[C@@H](C(=O)N1CCC[C@H]1c1ncc(-c2ccc(-c3ccc(NC(=O)[C@@H]4CCCN4C(=O)[C@@H](c4ccccc4)N(C)C)cc3)cc2)[nH]1)c1ccccc1 [Compound 60],< 1
12,COC(=O)N[C@H](C(=O)N1CCC[C@H]1CNC(=O)c1ccc(-c2ccc(-c3cnc([C@@H]4CCCN4C(=O)[C@@H](NC(=O)OC)[C@@H](C)OC)[nH]3)cc2)cc1)[C@@H](C)OC [Compound 122],< 1
13,O=C(N[C@@H](C(=O)N1CCC[C@H]1C(=O)NCc1ccc(-c2ccc(-c3cnc([C@@H]4CCCN4C(=O)[C@H](NC(=O)C4CC4)c4ccccc4)[nH]3)cc2)cc1)c1ccccc1)C1CC1 [Compound 43],< 1
14,O=C(N[C@@H](C(=O)N1CCOC[C@H]1C(=O)Nc1ccc(-c2ccc(-c3cnc([C@@H]4CCCN4C(=O)[C@H](NC(=O)C4CC4)c4ccccc4)[nH]3)cc2)cc1)c1ccccc1)C1CC1 [Compound 3],< 1
15,COC(=O)N[C@@H](C(=O)N1CCC[C@H]1CNC(=O)c1ccc(-c2ccc(-c3cnc([C@@H]4CCCN4C(=O)[C@@H](c4ccccc4)N4CCCCC4)[nH]3)cc2)cc1)c1ccccc1 [Compound 61],< 1
16,COC(=O)N[C@@H](C)C(=O)N1CCC[C@H]1C(=O)N[C@H](C)c1ccc(-c2ccc(-c3cnc([C@@H]4CCCN4C(=O)[C@H](C)NC(=O)OC)[nH]3)cc2)cc1 [Compound 96],1 to 9.9
17,C[C@@H](NC(=O)OC(C)(C)C)C(=O)N1CCC[C@H]1c1ncc(-c2ccc(Oc3ccc(-c4cnc([C@@H]5CCCN5C(=O)[C@@H](C)NC(=O)OC(C)(C)C)[nH]4)cc3)cc2)[nH]1 [Compound 47],1 to 9.9
18,COC(=O)N[C@H](C(=O)N1CCC[C@H]1c1nc2c([nH]1)-c1ccc(-c3ccc(C(=O)NC[C@@H]4CCCN4C(=O)[C@H](NC(=O)OC)c4ccccc4)cc3)cc1CC2)C(C)C [Compound 85],< 1
19,COC(=O)N[C@H](C(=O)N[C@@H](C)c1ncc(-c2ccc(-c3ccc(C(=O)NC[C@@H]4CCCN4C(=O)[C@@H](NC(=O)OC)C(C)C)nc3)cc2)[nH]1)C(C)C [Compound 92],1 to 9.9
20,C[C@@H](NC(=O)OC(C)(C)C)C(=O)N1CCOC[C@H]1C(=O)Nc1ccc(-c2ccc(-c3cnc([C@@H]4CCCN4C(=O)[C@@H](C)NC(=O)OC(C)(C)C)[nH]3)cc2)cc1 [Compound 12],10 to 999

row,Compound,EC50 [nM]
1,COC(=O)N[C@@H](C(=O)N1CCC[C@H]1CNC(=O)c1ccc(-c2ccc(-c3cnc([C@@H]4CCCN4C(=O)[C@H](NC(=O)OC)c4ccccc4)[nH]3)nc2)cc1)c1ccccc1 [Compound 91],< 1
2,COC(=O)N[C@@H](C(=O)N1CCC[C@H]1CNC(=O)c1ccc(-c2ccc(-c3cnc([C@@H]4CCCN4C(=O)[C@@H](c4ccccc4)N4CCOCC4)[nH]3)cc2)cc1)c1ccccc1 [Compound 62],< 1
3,COC(=O)N[C@H](C(=O)N1CCC[C@H]1C(=O)Nc1ccc(-c2ccc(-c3cnc([C@@H]4CCCN4C(=O)[C@@H](NC(=O)OC)C(C)C)[nH]3)cc2)cc1)C(C)C [Compound 109],10 to 999
4,CC(C)(C)OC(=O)N1CCC[C@H]1C(=O)Nc1ccc(-c2ccc(-c3cnc([C@@H]4COCCN4C(=O)OC(C)(C)C)[nH]3)cc2)cc1 [Compound 5],> 1000
5,C[C@@H](NC(=O)[C@@H]1CCCN1C(=O)[C@H](NC(=O)N1CCN(C)CC1)c1ccccc1)c1ccc(-c2ccc(-c3cnc([C@@H]4CCCN4C(=O)[C@H](NC(=O)N4CCN(C)CC4)c4ccccc4)[nH]3)cc2)cc1 [Compound 42],1 to 9.9
6,CC(C)[C@@H](NC(=O)OC(C)(C)C)C(=O)N1CCOC[C@H]1C(=O)Nc1ccc(-c2ccc(-c3cnc([C@@H]4COCCN4C(=O)[C@H](NC(=O)OC(C)(C)C)C(C)C)[nH]3)cc2)cc1 [Compound 18],10 to 999
7,O=C(NC[C@@H]1CCCN1C(=O)[C@H](NC(=O)C1CC1)c1ccccc1)c1ccc(-c2ccc(-c3cnc([C@@H]4CCCN4C(=O)[C@H](NC(=O)C4CC4)c4ccccc4)[nH]3)cc2)cc1 [Compound 55],< 1
8,CC(C)(C)OC(=O)N[C@@H](C(=O)N1CCOC[C@H]1C(=O)Nc1ccc(-c2ccc(-c3cnc([C@@H]4CCCN4C(=O)[C@H](NC(=O)OC(C)(C)C)c4ccccc4)[nH]3)cc2)cc1)c1ccccc1 [Compound 21],< 1
9,COC(=O)N[C@H](C(=O)N1CCC[C@H]1CNC(=O)c1ccc(-c2ccc(-c3cnc([C@@H]4CCCN4C(=O)[C@@H](NC(=O)OC)C4CCOCC4)[nH]3)cc2)cc1)C1CCOCC1 [Compound 123],1 to 9.9
10,O=C(N[C@@H](C(=O)N1CCC[C@H]1c1ncc(-c2ccc(Sc3ccc(-c4cnc([C@@H]5CCCN5C(=O)[C@H](NC(=O)N5CCOCC5)c5ccccc5)[nH]4)cc3)cc2)[nH]1)c1ccccc1)N1CCOCC1 [Compound 51],< 1
11,C[C@@H](NC(=O)[C@@H]1CCCN1C(=O)[C@H](NC(=O)OC(C)(C)C)c1ccccc1)c1ccc(-c2ccc(-c3cnc([C@@H]4CCCN4C(=O)[C@H](NC(=O)OC(C)(C)C)c4ccccc4)[nH]3)cc2)cc1 [Compound 39],< 1
12,CC(C)(C)OC(=O)N[C@@H](C(=O)N1CCOC[C@H]1C(=O)Nc1ccc(-c2ccc(-c3cnc([C@@H]4COCCN4C(=O)[C@H](NC(=O)OC(C)(C)C)c4ccccc4)[nH]3)cc2)cc1)c1ccccc1 [Compound 16],< 1
13,COC(=O)N[C@H](C(=O)N1CCC[C@H]1c1nc2c([nH]1)-c1ccc(-c3ccc(NC(=O)[C@@H]4CCCN4C(=O)[C@H](NC(=O)OC)c4ccccc4)cc3)cc1CC2)C(C)C [Compound 117],< 1
14,CN1CCN(C(=O)N[C@@H](C(=O)N2CCC[C@H]2COc2ccc(-c3ccc(-c4cnc([C@@H]5CCCN5C(=O)[C@H](NC(=O)N5CCN(C)CC5)c5ccccc5)[nH]4)cc3)cc2)c2ccccc2)CC1 [Compound 35],1 to 9.9
15,COC(=O)N[C@@H](C(=O)N1CCC[C@H]1C(=O)Nc1ccc(-c2ccc(-c3cnc([C@@H]4CCCN4C(=O)[C@@H](c4ccccc4)N(C)C)[nH]3)cc2)cc1)c1ccccc1 [Compound 59],< 1
16,O=C(Nc1ccc(-c2ccc(-c3cnc([C@@H]4COCCN4C(=O)[C@H](NC(=O)N4CCOCC4)c4ccccc4)[nH]3)cc2)cc1)[C@@H]1COCCN1C(=O)[C@H](NC(=O)N1CCOCC1)c1ccccc1 [Compound 2],1 to 9.9
17,C[C@H](NC(=O)[C@@H]1CCCN1C(=O)[C@H](NC(=O)N1CCOCC1)c1ccccc1)c1ccc(-c2ccc(-c3cnc([C@@H]4CCCN4C(=O)[C@H](NC(=O)N4CCOCC4)c4ccccc4)[nH]3)cc2)cc1 [Compound 38],1 to 9.9
18,C[C@@H](NC(=O)[C@@H]1CCCN1C(=O)[C@H](NC(=O)N1CCOCC1)c1ccccc1)c1ccc(-c2ccc(-c3cnc([C@@H]4CCCN4C(=O)[C@H](NC(=O)N4CCOCC4)c4ccccc4)[nH]3)cc2)cc1 [Compound 41],1 to 9.9
19,O=C(N[C@@H](C(=O)N1CCC[C@H]1c1ncc(-c2ccc(Oc3ccc(-c4cnc([C@@H]5CCCN5C(=O)[C@H](NC(=O)C5CC5)c5ccccc5)[nH]4)cc3)cc2)[nH]1)c1ccccc1)C1CC1 [Compound 54],< 1
20,COC(=O)N[C@@H](C)C(=O)N1CCC[C@H]1C(=O)N[C@@H](C)c1ccc(-c2ccc(-c3cnc([C@@H]4CCCN4C(=O)[C@H](C)NC(=O)OC)[nH]3)cc2)cc1 [Compound 94],1 to 9.9
